Assay results: patent US5578596A, “2-alkoxy-5,6,7,8-tetrahydroquinoxaline derivatives, and production method and use thereof” (Asahi Kasei Kogyo Kabushiki Kaisha, priority 1992, dated 1996)

Tests used:
nicotine-induced emesis = test: Suppression of nicotine-induced emesis in suncus; assay type: in vivo; settings: hydrochloride 3 mg/kg intraperitoneal, 30 min before nicotine 4 mg/kg s.c.
Experimental: (§1) It has been known that cisplatin and nicotine have an emesis-inducing activity. In this test, it was investigated as to whether the hydrochloride of compound (1) of the present invention has the activity to suppress the occurrence of emeses which are induced by these drugs.
On the other hand, nicotine was subcutaneously administered to four suncuses (4 mg/kg). As a result, with respect to all of the suncuses, emesis was induced 11 to 29 times within 3 to 10 minutes after the administration of the nicotine.

[1] = biological target: T1, serotonin 1A (5HT1A) receptor (Rattus norvegicus, UniProt P19327); test: Affinity for serotonin 1A (5HT1A) receptor: inhibition of 3H-8-OH-DPAT binding to rat hippocampal membrane fraction; settings: test compound as hydrochloride
T1 construct: The resultant precipitate was used as a rat hippocampal membrane fraction in the following procedures; from tissue; host or cells: hippocampal membrane fraction of male SD rat (7 weeks old; animals from Charles River)
T1 sequence (P19327 1-422): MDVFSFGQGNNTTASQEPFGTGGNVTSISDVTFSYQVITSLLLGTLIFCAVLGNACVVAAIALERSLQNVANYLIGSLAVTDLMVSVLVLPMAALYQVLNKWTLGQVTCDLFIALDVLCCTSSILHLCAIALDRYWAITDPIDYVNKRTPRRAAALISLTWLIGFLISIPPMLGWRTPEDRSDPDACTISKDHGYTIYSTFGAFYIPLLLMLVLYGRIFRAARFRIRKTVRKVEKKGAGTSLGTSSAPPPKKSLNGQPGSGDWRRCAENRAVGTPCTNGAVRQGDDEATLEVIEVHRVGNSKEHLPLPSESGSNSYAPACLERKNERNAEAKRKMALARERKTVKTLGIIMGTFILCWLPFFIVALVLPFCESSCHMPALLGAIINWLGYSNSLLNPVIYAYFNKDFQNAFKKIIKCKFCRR
Experimental: 1. Affinity for serotonin 1A (5HT1A) receptor
(A) Preparation of rat hippocampal membrane fraction
A male SD strain rat (7-week old; Charles River) was decapitated, and brain was taken out therefrom quickly. 50 mM Tris-HCl buffer (pH 7.4) was added to the brain under ice cooling to obtain a suspension. The resultant suspension was homogenized, and then subjected to centrifugation at 48000 g for 15 minutes, to thereby obtain a precipitate. The precipitate was resuspended in the same Tris-HCl buffer as used above. The resultant suspension was incubated at 30° C. for 20 minutes to decompose endogenous serotonin of the rat hippocampal membrane, followed by centrifugation at 48000 g for 15 minutes to thereby obtain a precipitate. The resultant precipitate was used as a rat hippocampal membrane fraction in the following procedures.
(B) Method for the evaluation of the binding ability of ^3 H-8-hydroxy-dipropylaminotetralin (^3 H-8-OH-DPAT) to serotonin 1A receptor
The rat hippocampal membrane fraction prepared in step (A) above (about 100 to 200 μg in terms of proteins) was reacted with 0.5 nM (final concentration) ^3 H-8-OH-DPAT (which is commercially available from DuPont-NEN Research Products) and 10 μM (final concentration) pargyline (which is commercially available from Sigma Chemical Company) at 30° C. for 30 minutes to effect a reaction. The resultant reaction mixture was subjected to suction filtration using a Whatman GF/C filter, to thereby terminate the reaction. The radio-activity of ^3 H-8-OH-DPAT adsorbed on the filter was determined using a liquid scintillation counter. The obtained value is regarded as a total amount (TB) of specifically binding ^3 H-8-OH-DPAT and non-specifically binding ^3 H-8-OH-DPAT.
On the other hand, substantially the same procedure as mentioned above was repeated, except that 10 μM (final concentration) serotonin was added to the ^3 H-8-OH-DPAT and pargyline. The radioactivity of ^3 H-8-OH-DPAT adsorbed on the filter was determined in the same manner as mentioned above. The obtained value is regarded as the amount (NB) of non-specifically binding ^3 H-8-OH-DPAT.
Further, substantially the same procedure as mentioned above was repeated, except that, instead of serotonin, a test compound was used in a predetermined concentration. The radioactivity of ^3 H-8-OH-DPAT adsorbed on the filter was determined in the same manner as mentioned above. The obtained value is regarded as the amount (DTB) of binding ^3 H-8-OH-DPAT.
(C) Calculation of Ki value
The inhibition ratio of the test compound (at a certain concentration) against the binding of 3H-8-OH-DPAT (the inhibition ratio is hereinafter referred to simply as "binding inhibition ratio") was calculated according to the following formula:
Binding inhibition ratio (%)=100-(DTB-NB).div.(TB-NB)×100
With respect to each of the test compounds, the binding inhibition ratios at various concentrations (from a higher concentration to a lower concentration) were determined. The binding inhibition ratios were plotted, taking the logarithmic value of the concentration of test compound as the abscissa value, and the binding inhibition ratio as the ordinate value. Then, a curve was drawn by non-linear least square method.
The Ki value was determined according to the following formula:
[L] is the concentration (0.2 nM) of a radioactive ligand (^3 H-8-OH-DPAT) used in the test;

cisplatin-induced emesis = test: Suppression of cisplatin-induced emesis in suncus; assay type: in vivo; settings: hydrochloride 0.3 mg/kg intraperitoneal, 30 min before cisplatin 20 mg/kg i.p.
Experimental: as §1
Cisplatin was intraperitoneally administered to each of four suncuses (20 mg/kg). As a result, with respect to all of the suncuses, emesis occurred 10 to 20 times within 40 to 70 minutes after the administration of the cisplatin.

[2] = system: Suncus murinus (motion sickness emesis); test: Activities against motion sickness: acceleration-stimulus induced emesis in suncus; assay type: in vivo; settings: 1 mg/kg intraperitoneal, 30 min before acceleration-stimulus (4 cm, 1 Hz), observed 10 min; hydrochloride; 4 suncus
Excerpt: The activities of individual compounds against motion sickness were examined using Suncus murinus. Suncus murinus is a small animal belonging to the Soricidae family. It has been known that suncus is likely to suffer from motion sickness and is susceptible to occurrence of emesis [see "Seitai-no-kagaku (Science of living body)", 41, 538 (1990)]. Suncus is likely to show symptoms like the symptoms of human motion sickness under the stimulus of simple acceleration, finally leading to the occurrence of emesis. It has been recognized that motion sickness is caused by the occurrence of disorder in information, such as vision, equilibrium sense and the like, or by a stimulus which has never been memorized. Further, it has been recognized that the disorder in the inner earvestibular nucleus pathway and the high-order function of brain take part in the occurrence of motion sickness. Therefore, medicines capable of suppressing the occurrence of emesis of suncus would be useful for preventing and treating motion sickness, space sickness, emesis, dizziness and the like.
In this test, test compounds were individually administered intraperitoneally to suncus.
The time for occurrence of emesis was measured with respect to each of the test compounds, and the results are shown in Table 3.

[3] = system: immobile state of rat in forced swimming test; test: Anti-depression activity evaluated by forced swimming test using rats; assay type: in vivo, male Wistar strain rats; settings: hydrochloride; for Time spent in immobile state: 30 min before test, observed 6 min, 6 rats, saline control 236 sec.
Experimental: 4. Anti-depression activity (which was evaluated by forced swimming test using rats)
When a rat is put in a water tank, the rat struggles for its life to get out of the water (that is, the rat starts a "forced swimming"). If the rat finds that it is impossible for him to get out, the rat stops swimming and assumes an immobile state. It has been known that the administration of an antidepressant can cause a violent swimming motion in the rat for getting out of the water, with a result that the time spent in the immobile state is shortened. The shortening of the time in the immobile state of the rat in the forced swimming test by the administration of the antidepressant is well correlated to the clinical anti-depression effect. Accordingly, in developing antidepressants, the forced swimming test using a rat is the most reliable screening method. In the present test, male Wistar strain rats were used. Compound 300 of the present invention (in the form of the hydrochloride thereof) was intraperitoneally administered to a rat. 30 minutes after the administration, the rat was put in a water tank and then, observed for 6 minutes. The time for the rat to keep the immobile state was measured.

[4] = known, background; cited from earlier work

| Compound | occurrence of nicotine-induced emesis (nicotine-induced emesis) | Ki [1] [nM] | occurrence of cisplatin-induced emesis (cisplatin-induced emesis) | Time for occurrence of emesis [2] | time for the rat to keep the immobile state (in words) ([3]; 1 mg/kg and 10 mg/kg) | Time spent in immobile state ([3]; 1 mg/kg intraperitoneal) [s] | Time spent in immobile state ([3]; 10 mg/kg intraperitoneal) [s] | effect on emesis induced by drugs other than cisplatin [4] | effect on motion sickness [4] | suppression of cisplatin-induced emesis [4] |
| --- | --- | --- | --- | --- | --- | --- | --- | --- | --- | --- |
| c1ccc(N2CCN(CCCCOc3cnc4c(n3)CCCC4)CC2)nc1 [Compound 300, 2-[4-{4-(2-Pyridyl)-1-piperazinyl}butoxy]-5,6,7,8-tetrahydroquinoxaline] | completely suppressed | 1.6 | completely suppressed | Emesis did not occur | remarkably shortened | 173 | 163 | – | – | – |
| Cc1nccn1CC1CCc2c(c3ccccc3n2C)C1=O (stereo not shown) [ondansetron] | – | – | – | – | – | – | – | no effect | no effect | effective for suppressing cisplatin-induced emesis |
